The values below come from patent EP0236948A2, “Novel compounds WK-142 and process for preparing the same” (KITASATO KENKYUSHO, priority 1986, dated 1987).

Experiment [1] has as its target T1, pepsin from coats of pig's stomach (Sus scrofa, UniProt P00791).
T1 construct: using pepsin from coats of pig's stomach (P7012 manufactured by Sigma Chemical Inc.); purchased Sigma Chemical Inc. P7012; host or cells: pig stomach mucosa
In words: Pepsin-inhibiting activity (method of Anson et al). The format is biochemical. As to conditions: pepsin from coats of pig's stomach (P7012, Sigma). The method, then: • (1) Pepsin-Inhibiting Activity: The pepsin-inhibiting activity was measured in terms of IC50 value according to the method of Anson et al [Journal of General Physiology 22, 79 (1938)] using pepsin from coats of pig's stomach (P7012 manufactured by Sigma Chemical Inc.).

For experiment [2], the system named is renin obtained from pig's kidney. In words: Renin-inhibiting activity (method of Ikeda et al). The class given is biochemical.

The structures appear in SMILES notation. Non-standard residues stand in square brackets, D forms with d. Residues, ends and D or L forms follow the SMILES beside them. *: point of attachment. Sta = CC(C)C[C@H](N)[C@@H](O)CC(=O)O; Isovaleryl = CC(C)CC(=O)*

T1 sequence (P00791 60-385): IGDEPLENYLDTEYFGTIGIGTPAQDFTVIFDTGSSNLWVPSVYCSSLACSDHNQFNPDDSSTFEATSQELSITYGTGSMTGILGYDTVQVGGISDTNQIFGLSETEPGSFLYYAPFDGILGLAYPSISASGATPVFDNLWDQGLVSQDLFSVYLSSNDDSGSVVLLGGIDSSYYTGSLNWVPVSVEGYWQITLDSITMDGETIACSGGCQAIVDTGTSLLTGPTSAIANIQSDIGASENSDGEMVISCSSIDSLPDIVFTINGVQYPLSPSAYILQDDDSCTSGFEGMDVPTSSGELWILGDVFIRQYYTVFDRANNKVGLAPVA

As for `CC(C)CC(=O)NC(C(=O)NC(C(=O)NC(CC(C)C)C(O)CC(=O)NC(C)C(=O)NC(Cc1ccccc1)C(O)CC(=O)O)C(C)C)C(C)C` (stereo not drawn) [compound A], the IC50 (in general, the concentration needed to halve the response being measured) in experiment [1] is 10 nM.

As to `CC(C)CC(=O)N[C@H](C(=O)N[C@H](C(=O)N[C@@H](CC(C)C)[C@@H](O)CC(=O)N[C@@H](C)C(=O)N[C@@H](CC(C)C)[C@@H](O)CC(=O)O)C(C)C)C(C)C` [pepstatin A] (Isovaleryl-VV[Sta]A[Sta]-OH), the IC50 was 3 nM in experiment [1] and 470 nM in experiment [2].
